Calls of active or inactive are those of the source. The rule behind the calls is not given here.
What was measured:
[1] = Stability in Wistar rat assessed as parent drug level in blood at 10.5 mg/kg, po administered via gavage measured after 5 mins by LC-MS/MS analysis; type: ADME, organism-based; settings: in vivo
[2] = Cardiotoxicity against Sprague-Dawley rat assessed as striated muscle recovery with reduced vacuolation in heart at 14.2 mg/kg, ip administered for 6 days by Hematoxylin-Eosin staining analysis; type: toxicity, organism-based; settings: in vivo, 144 h, time 6 day
[3] = Toxicity against Sprague-Dawley rat assessed as elevation of beneficial gut probiotics(Prevotellaceae and Erysipelotrichaceae) at 10.5 mg/kg, po administered via gavage for 7 days and measured at 2 hrs post-last drug dosage by Kruskal-Wallis H test; type: organism-based; settings: in vivo, 168 h, time 7 day
[4] = Drug metabolism in Wistar rat assessed as DCF level in blood at 10.5 mg/kg, po administered via gavage measured after 10 mins by LC-MS/MS analysis; type: ADME, organism-based; settings: in vivo
[5] = Stability of the compound in PBS at 500 uM measured within 144 hrs at pH 7.4 at 37 degC by HPLC analysis; type: physicochemical; settings: buffer, pH 7.4, 144 h
[6] = Stability of the compound in PBS at 500 uM measured for 3 months at pH 7.4 at -20 degC by HPLC analysis; type: physicochemical; settings: buffer, pH 7.4, 2190 h
[7] = Cardiotoxicity against Sprague-Dawley rat assessed as increase in Bcl-2 level in heart at 14.2 mg/kg, ip administered for 6 days by immunofluorescence staining analysis; type: toxicity, organism-based; settings: in vivo, 144 h, time 6 day
[8] = biological target: T1, Prostaglandin G/H synthase 1 (Ovis aries, UniProt P05979); test: Inhibition of ovine COX1 assessed as reduction in PGF2alpha production using arachidonic acid as substrate preincubated with enzyme for 10 mins followed by substrate addition and measured after 2 mins by ELISA
T1 sequence (P05979 whole entry): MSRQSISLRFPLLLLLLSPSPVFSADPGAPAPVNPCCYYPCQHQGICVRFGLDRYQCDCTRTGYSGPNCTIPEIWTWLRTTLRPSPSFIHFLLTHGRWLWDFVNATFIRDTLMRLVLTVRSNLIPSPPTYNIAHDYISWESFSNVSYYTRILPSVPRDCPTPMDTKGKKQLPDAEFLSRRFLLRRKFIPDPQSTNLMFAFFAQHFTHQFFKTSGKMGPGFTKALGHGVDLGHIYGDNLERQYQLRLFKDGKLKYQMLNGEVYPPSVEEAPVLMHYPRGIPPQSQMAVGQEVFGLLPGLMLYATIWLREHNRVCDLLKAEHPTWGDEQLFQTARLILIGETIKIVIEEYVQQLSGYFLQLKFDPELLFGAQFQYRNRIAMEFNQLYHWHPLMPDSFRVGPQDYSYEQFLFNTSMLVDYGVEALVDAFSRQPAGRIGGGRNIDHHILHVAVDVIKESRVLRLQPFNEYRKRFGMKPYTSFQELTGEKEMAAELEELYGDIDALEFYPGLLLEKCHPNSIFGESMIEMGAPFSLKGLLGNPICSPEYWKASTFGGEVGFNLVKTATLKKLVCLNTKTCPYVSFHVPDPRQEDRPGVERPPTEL

[9] = Toxicity against collagen-induced arthritis Wistar rat model assessed as glutathione level in liver at 33.7 umol/kg, po administered for 28 days; type: organism-based; settings: in vivo, 672 h, dose 33.7 µmol/kg, time 28 day
[10] = Toxicity against collagen-induced arthritis Wistar rat model assessed as uric acid level in serum at 33.7 umol/kg, po administered for 28 days; type: organism-based; settings: in vivo, 672 h, dose 33.7 µmol/kg, time 28 day
[11] = test system: Rattus norvegicus; test: Antiinflammatory activity against collagen-induced arthritis Wistar rat model assessed as reduction in IL-1 beta level in serum at 33.7 umol/kg, po administered for 28 days via gavage by ELISA; type: functional, organism-based; settings: dose 33.7 µmol/kg, time 28.0 day
[12] = Cardiotoxicity against Sprague-Dawley rat assessed as myocardial fibrosis at 14.2 mg/kg, ip administered for 6 days by Masson staining analysis; type: toxicity, organism-based; settings: in vivo, 144 h, time 6 day
[13] = Cardiotoxicity against Sprague-Dawley rat assessed as SOD level in heart at 14.2 mg/kg, ip administered for 6 days; type: toxicity, organism-based; settings: in vivo, 144 h, time 6 day
[14] = Toxicity against C57BL/6J mouse assessed as ALT level in serum at 506 umol/kg, ip measured after 24 hrs; type: organism-based; settings: in vivo, dose 506 µmol/kg
[15] = Cardiotoxicity against Sprague-Dawley rat assessed as LDH level in serum at 14.2 mg/kg, ip administered for 6 days (reference value: 831.8 +/-23.1 U/L); type: toxicity, organism-based; settings: in vivo, 144 h, time 6 day
[16] = Toxicity against collagen-induced arthritis Wistar rat model assessed as decrease in SOD activity in liver at 33.7 umol/kg, po administered for 28 days; type: organism-based; settings: in vivo, 672 h, dose 33.7 µmol/kg, time 28 day
[17] = Stability of the compound in rat plasma assessed as half life by LC-MS/MS analysis; type: ADME, cell-free
[18] = Toxicity against collagen-induced arthritis Wistar rat model assessed as increase in body weight at 33.7 umol/kg, po administered for 28 days; type: organism-based; settings: in vivo, 672 h, at 33.7 µmol/kg, time 28 day
[19] = Toxicity against collagen-induced arthritis Wistar rat model assessed as decrease in CAT activity in kidney at 33.7 umol/kg, po administered for 28 days; type: organism-based; settings: in vivo, 672 h, dose 33.7 µmol/kg, time 28 day
[20] = Toxicity against Sprague-Dawley rat assessed as decrease in crypt proliferation at 10.5 mg/kg, po administered via gavage for 7 days and measured at 2 hrs post-last drug dosage by Ki67 immunohistochemistry; type: organism-based; settings: in vivo, 168 h, time 7 day
[21] = Toxicity against Sprague-Dawley rat assessed as dysbiosis in gut microbiota at 10.5 mg/kg, po administered via gavage for 7 days and measured at 2 hrs post-last drug dosage by 16S rRNA amplicon sequencing based PCA analysis; type: organism-based; settings: in vivo, 168 h, time 7 day
[22] = Toxicity against collagen-induced arthritis Wistar rat model assessed as preserved mucosa integrity without gastrointestinal damage at 33.7 umol/kg, po administered for 28 days by Hematoxylin-Eosin staining based analysis; type: organism-based; settings: in vivo, 672 h, dose 33.7 µmol/kg, time 28 day
[23] = test system: Rattus norvegicus; test: Antiinflammatory activity against collagen-induced arthritis Wistar rat model assessed as reduction in toe swelling at 33.7 umol/kg, po administered for 28 days via gavage; type: functional, organism-based; settings: dose 33.7 µmol/kg, time 28.0 day
[24] = Cardiotoxicity against Sprague-Dawley rat assessed as decrease in cleaved caspase-3 level in heart at 14.2 mg/kg, ip administered for 6 days by immunofluorescence staining analysis; type: toxicity, organism-based; settings: in vivo, 144 h, time 6 day
[25] = Oral bioavailability in Wistar rat at 10.5 mg/kg; type: ADME, organism-based; settings: in vivo
[26] = test system: Rattus norvegicus; test: Antiinflammatory activity against collagen-induced arthritis Wistar rat model assessed as increase in IL-10 level in serum at 33.7 umol/kg, po administered for 28 days via gavage by ELISA; type: functional, organism-based; settings: dose 33.7 µmol/kg, time 28.0 day
[27] = Drug metabolism in Wistar rat assessed as DCF level in blood at 10.5 mg/kg, po administered via gavage measured after 5 mins by LC-MS/MS analysis; type: ADME, organism-based; settings: in vivo
[28] = Toxicity against Sprague-Dawley rat assessed as preservation of integrity of jejunal vili without crypt damage and less glandular structure loss in colon at 10.5 mg/kg, po administered via gavage for 7 days and measured at 2 hrs post-last drug dosage by Hematoxylin-Eosin staining based analysis; type: organism-based; settings: in vivo, 168 h, time 7 day
[29] = Toxicity against Sprague-Dawley rat assessed as diarrhea at 10.5 mg/kg, po administered via gavage for 7 days; type: organism-based; settings: in vivo, 168 h, time 7 day
[30] = Toxicity against C57BL/6J mouse assessed as AST level in serum at 506 umol/kg, ip measured after 24 hrs; type: organism-based; settings: in vivo, dose 506 µmol/kg
[31] = Cardiotoxicity against Sprague-Dawley rat assessed as MDA level in heart at 14.2 mg/kg, ip administered for 6 days; type: toxicity, organism-based; settings: in vivo, 144 h, time 6 day
[32] = Toxicity against Sprague-Dawley rat assessed as valeric acid and caproic acid in feces at 10.5 mg/kg, po administered via gavage for 7 days and measured at 2 hrs post-last drug dosage; type: organism-based; settings: in vivo, 168 h, time 7 day
[33] = Toxicity against Sprague-Dawley rat assessed as apoptosis in intestine at 10.5 mg/kg, po administered via gavage for 7 days and measured at 2 hrs post-last drug dosage by TUNEL immunofluorescence staining; type: organism-based; settings: in vivo, 168 h, time 7 day
[34] = Toxicity against Sprague-Dawley rat assessed as potentially pathogenic bacteria (Clostridiaceae and Peptostreptococcaceae) level at 10.5 mg/kg, po administered via gavage for 7 days and measured at 2 hrs post-last drug dosage by Kruskal-Wallis H test; type: organism-based; settings: in vivo, 168 h, time 7 day
[35] = Toxicity against collagen-induced arthritis Wistar rat model assessed as gastric ulceration at 16.8 umol/kg, po administered for 28 days; type: organism-based; settings: in vivo, 672 h, dose 16.8 µmol/kg, time 28 day
[36] = Toxicity against collagen-induced arthritis Wistar rat model assessed as AST level in serum at 33.7 umol/kg, po administered for 28 days; type: organism-based; settings: in vivo, 672 h, dose 33.7 µmol/kg, time 28 day
[37] = Toxicity against collagen-induced arthritis Wistar rat model assessed as increase in body weight at 16.8 umol/kg, po administered for 28 days; type: organism-based; settings: in vivo, 672 h, at 16.8 µmol/kg, time 28 day
[38] = Toxicity against collagen-induced arthritis Wistar rat model assessed as creatinine level in serum at 33.7 umol/kg, po administered for 28 days; type: organism-based; settings: in vivo, 672 h, dose 33.7 µmol/kg, time 28 day
[39] = Cardiotoxicity against Sprague-Dawley rat assessed as cTnI level in serum at 14.2 mg/kg, ip administered for 6 days (reference value: 1.9 +/-0.2 ng/ml); type: toxicity, organism-based; settings: in vivo, 144 h, time 6 day

O=C([S-])Cc1ccccc1Nc1c(Cl)cccc1Cl.[Na+]
Stability [1]: 2330 ng/mL
Activity [2]: Non-toxic
Activity [3]: Non-toxic
Drug metabolism [4]: 9755 ng/mL
Stability [5]: Stable
Stability [6]: Stable
Activity [7]: Non-toxic
IC50 [8]: 35.9 nM
Activity [9]: 1.2 µg/mg
Activity [10]: 123.9 µmol/L
Activity [11]: Active
Activity [12]: Non-toxic
Activity [13]: Non-toxic
Activity [14]: 45.9 U/L
Activity [15]: 1165 U/L
Activity [16]: Non-toxic
half-life [17]: 87.2 min
Activity [18]: 8%
Activity [19]: Non-toxic
Activity [20]: Non-toxic
Activity [21]: Non-toxic
Activity [22]: Non-toxic
Activity [23]: Active
Activity [24]: Non-toxic
bioavailability [25]: 80%
Activity [26]: Active
Drug metabolism [27]: 942.7 ng/mL
Activity [28]: Non-toxic
Activity [29]: Non-toxic
Activity [30]: 66.5 U/L
Activity [31]: Non-toxic
Activity [32]: Non-toxic
Activity [33]: Non-toxic
Activity [34]: Non-toxic
Activity [35]: Non-toxic
Activity [36]: 50.2 U/L
Activity [37]: 8%
Activity [38]: 313.9 µmol/L
Activity [39]: 2.7 ng/mL
